Several values for one entry are separate records, joined by “and”; a condition that tells them apart may be missing. Identical values can stand only once.
Experiments:
[1] = test system: wild type Coker 312 plants; assay: AMPA spray on cotton plants; assay type: in vivo, cotton (Gossypium hirsutum L.)
Procedure: Previously identified plants transformed with a double gene glyphosate resistance cassette comprised of EPSPS and GOX encoding genes were determined to be resistant to glyphosate when applied at 48 ounces per acre through the 6-7 leaf stage, however severe bleaching of the leaves was observed. This phytotoxic effect was presumed to be due to the formation of AMPA as a result of GOX mediated glyphosate degradation. To test this, AMPA was sprayed at three different rates onto wild type Coker 312 plants. […] To test this, cotton plants expressing GOX or GOX plus EPSPS alone or in combination with PhnO expression were treated with [^14C]-glyphosate, and the metabolism of the isotope labeled glyphosate was monitored in leaf tissue seven days after application.

E. coli GB993 = assay: Cell growth in MOPS medium with AMPA; assay type: cell-based; settings: 0.2 mM AMPA, growth period 54 hrs
Procedure: The phn operon is induced when E. coli is grown in media lacking or limited in a phosphate source. Therefore, E. coli GB993 was compared to the parental JM101 strain when grown in MOPS minimal media. GB993 and its mpu− parent strain, JM101, were grown under identical conditions, varying only the amount of phosphate available or supplemented with AMPA. 50 ml cultures were grown in duplicate in 250 ml sidearm-Erlenmeyer flasks with continuous shaking at 37° C. in MOPS medium (5 mls of 10×MOPS salts, 0.5 ml 1 mg/ml thiamin, 0.5 ml 20% glucose, to 50 mls with dH2O) containing 0.1 or 5 mM phosphate, or 0.1 mM phosphate supplemented with approximately 0.2 mM AMPA, pH 7.0. The cultures were generally grown to about 220 Klett units and the cells were pelleted by centrifugation, resuspended in 1.5 mls of 10 mM Tris/1 mM DTT, and lysed with two passes through a French press at […]. Lysates were centrifuged to remove debris and the supernatant passed through a G-50 column equilibrated with 50 mM Tris pH 7.0.

[2] = test system: Achromobacter sp. strain LBAA; assay: Glyphosate degradation pathway in resting cells
Procedure: The glyphosate degradation pathway was characterized in resting cells of glyphosate-grown Achromobacter sp. strain LBAA according to the following procedure. Cells from a 100 ml culture of LBAA, grown in DF3S medium containing glucose, gluconate and citrate as carbon sources and with thiamine and Yeast Extract (0.01%) to supply trace requirements and with glyphosate at 0.2 mM as a phosphorous source, were harvested at a cell density of 200 Klett units, washed twice with 20 ml of DF3S medium and the equivalent of 20 ml of cells were resuspended in […] of the same medium containing [^14C]glyphosate (2.5 ml of 52 mCi/mmol, Amersham; CFA.745). The cell mix was incubated at 30° C. with shaking and 20 ml samples were withdrawn at various intervals. The samples were centrifuged to separate the cells from the broth supernatant. Both the supernatant and cell pellets were analyzed by HPLC.
Samples prepared in this way were analyzed by strong anion exchange (SAX) HPLC with radioisotope label detection to determine their levels of [^14C]-AMPA and N-acetyl-[^14C]-AMPA. Samples were injected using a Waters WISP autoinjector. Chromatographic profiles and quantitative data were collected using MACS2, Monsanto's automated chromatography data collection system. A Spherisorb S5 SAX, 250 mm×10 mm column, or an Alltech 5 micron, 250 mm×10 mm SAX column was used for the analyses. Solvents used were designated as solution A and solution B. Solution A contained 0.005M KH2PO4 adjusted to pH 2.0 with H3PO4 in 4% methanol. Solution B contained 0.10 M KH2PO4 adjusted to pH 2.0 with H3PO4 in 4% methanol. Each sample run time consisted of a step gradient program with an eluent flow rate of 3 ml per minute and a scintillation fluid (tradename ATOMFLOW, No. NEN-995 obtained from Packard Instruments) flow rate of 9 ml per minute. The HPLC solvent profile for distinguishing [^14C]-AMPA from N-acetyl-[^14C]-AMPA in each sample analyzed was represented by 100% solvent A at times zero through 5 minutes, then solvent B at 100% at time 5 minutes through 15 minutes, then 100% solvent A through 20 minutes at which time the column is prepared to receive another sample.
Cell pellets were first resuspended in DF3S medium made acidic by addition of 0.65N HCl, boiled for 5 minutes, then centrifuged briefly to provide a solution phase for HPLC analysis. Supernatants were treated similarly prior to HPLC analysis.
The GOX mediated glyphosate degradation pathway was elucidated further in a subsequent experiment where the metabolism of [^14C]AMPA was compared to that of [^14C]glyphosate as indicated above in resting cells harvested at 165 Klett units and resuspended at the equivalent of 15 ml cells per 100 ml DF3S medium. The samples were analyzed by HPLC and consisted of whole cultures acidified and treated as described above.

[3] = test system: R2 glyphosate tolerant wheat plants; assay: [^14C]-glyphosate metabolism in wheat plants; assay type: in vivo, Triticum aestivum cv Bobwhite
Procedure: R2 seed was germinated from a number of different glyphosate tolerant lines to produce R2 glyphosate tolerant plants to which [^14C]-glyphosate was applied as described above. Plant leaf and stem tissues were harvested at 48 hours after glyphosate application, and water soluble compounds were extracted as described above and analyzed by HPLC as in example 2 for the presence of [^14C]-glyphosate metabolites. The total area under the [^14C] isotope labeled peaks eluting from the column was summed to provide a baseline of 100% [^14C]-compound identification for each sample analyzed.

male gametes = settings: under optimal conditions; cited from earlier work
[4] = test system: recombinant cotton line 3753 (EPSPS/GOX); assay: [^14C]-glyphosate metabolism in cotton line 3753; assay type: in vivo, cotton (Gossypium hirsutum L.); settings: EPSPS/GOX Plants
Procedure: The metabolism of [^14C]-glyphosate in recombinant cotton lines 4268 (GOX/PhnO) and 3753 (EPSPS/GOX) was also studied. Plants in this study were treated as indicated above for cotton line 4416, by applying droplets of ROUNDUP ULTRA fortified with [^14C]-glyphosate to a single leaf on each plant at the three to four leaf stage. Treated leaves were harvested and rinsed with water, then ground and extracted, and extracts were analyzed by HPLC as described above for the presence of [^14C]-glyphosate, [^14C]-AMPA, and N-acetyl-[^14C]-AMPA. New growth, including the meristem and new leaves that emerged following application were also extracted and analyzed.

[5] = whole cultures exposed two hours
[6] = EPSPS + PhnO + GOX, Plant Line 25462
[7] = EPSPS + PhnO + GOX, Plant Line 26281
[8] = EPSPS + PhnO + GOX, Plant Line 28598
[9] = non-recombinant Bobwhite plants

## NCP(=O)(O)O [AMPA, N-aminomethyl phosphonic acid]
[1]; 64 ounces per acre, eight days post-application
  phytotoxic effect on plants: Leaf chlorosis and stunted growth
[1]; 640 ounces per acre, four days post-application
  phytotoxic effect on plants: Leaf chlorosis and stunted growth
E. coli GB993
  Harvest Density: 185 Klett Units
[2]; [5]
  label as AMPA: 59%
  label in the 13.2 minute peak (N-acetyl-AMPA): 18%
  label in the methylamine/N-acetyl-methylamine peak: 15%

## N-phosphono-methyl-glycine [Glyphosate]
[3]; [6]
  Acetyl-[^14C]-AMPA, of summed [^14C] peaks: 0%
  [^14C]-Glyphosate, of summed [^14C] peaks: 48% and 44% and 54%
[3]; [7]
  Acetyl-[^14C]-AMPA, of summed [^14C] peaks: 17% and 13% and 7%
  [^14C]-AMPA, of summed [^14C] peaks: 14% and 11% and 7%
  [^14C]-Glyphosate, of summed [^14C] peaks: 48% and 64% and 38%
[3]; EPSPS + PhnO + GOX, Plant Line 27249
  [^14C]-Glyphosate, of summed [^14C] peaks: 6% and 14% and 5%
[3]; [8]
  Acetyl-[^14C]-AMPA, of summed [^14C] peaks: 5%
  [^14C]-AMPA, of summed [^14C] peaks: 7%
  [^14C]-Glyphosate, of summed [^14C] peaks: 20% and 25%
  [^14C]-Other, of summed [^14C] peaks: 68% and 63%
[3]; EPSPS, Plant Line 24756
  Acetyl-[^14C]-AMPA, of summed [^14C] peaks: 1% and 0%
  [^14C]-AMPA, of summed [^14C] peaks: 25% and 46%
[3]; EPSPS, Plant Line 24756, 48 hours after application
  [^14C]-Glyphosate, of summed [^14C] peaks: 43% and 53%
[3]; EPSPS, Plant Line 25397
  Acetyl-[^14C]-AMPA, of summed [^14C] peaks: 0% and 1.2%
  [^14C]-AMPA, of summed [^14C] peaks: 38% and 19% and 20%
  [^14C]-Glyphosate, of summed [^14C] peaks: 61% and 37% and 64%
[3]; [9]
  Acetyl-[^14C]-AMPA, of summed [^14C] peaks: 0%
  [^14C]-AMPA, of summed [^14C] peaks: 26% and 15% and 24%
Male gametes
  male gametes killed: about 95%
[2]; two hours incubation
  glyphosate found within the cell: About 3%
  material co-eluting with the methylamine standard, of initial radioactivity in the cell contents: about 1.5%
  material co-eluting with the methylamine standard, of initial radioactivity in the supernatant: about 5%
  radioactivity in the glyphosate peak remaining in the supernatant, of the initial levels: about 33%
[2]; [5]
  label as AMPA: 12.5%
  label as glyphosate: 30%
  label in the 13.2 minute peak (N-acetyl-AMPA): 30%
  label in the methylamine/N-acetyl-methylamine peak: 25%
[4]
  % [^14C] metabolite in New Growth Extract: N-Acetyl-AMPA: 1.9%
[4]; listed as [^14C]-Glyphosate
  % [^14C] metabolite in Glyphosate Treated Leaf Extract: AMPA: 6-27%
  % [^14C] metabolite in Glyphosate Treated Leaf Extract: Glyphosate: 59.8% and 92.7% and 81.2% and 86.2%
  % [^14C] metabolite in Glyphosate Treated Leaf Extract: N-Acetyl-AMPA: 0.8% and 1.0%
  % [^14C] metabolite in New Growth Extract: AMPA: 72-86%
  % [^14C] metabolite in New Growth Extract: Glyphosate: 93%

Source: patent US7554012B2, “Plants and plant cells exhibiting resistance to AMPA, and methods for making the same” (priority 1998, dated 2009)
